Calls of active or inactive are those of the source. No cut-off for these calls is given here.
Experiments:
[1] = target: T1, Fatty-acid amide hydrolase 1 (Homo sapiens, UniProt O00519); test: Inhibition of human FAAH using [3Hethanolamine]AEA as substrate incubated for 20 mins prior to substrate addition measured after 15 mins by beta counting analysis
T1 sequence (O00519 whole entry): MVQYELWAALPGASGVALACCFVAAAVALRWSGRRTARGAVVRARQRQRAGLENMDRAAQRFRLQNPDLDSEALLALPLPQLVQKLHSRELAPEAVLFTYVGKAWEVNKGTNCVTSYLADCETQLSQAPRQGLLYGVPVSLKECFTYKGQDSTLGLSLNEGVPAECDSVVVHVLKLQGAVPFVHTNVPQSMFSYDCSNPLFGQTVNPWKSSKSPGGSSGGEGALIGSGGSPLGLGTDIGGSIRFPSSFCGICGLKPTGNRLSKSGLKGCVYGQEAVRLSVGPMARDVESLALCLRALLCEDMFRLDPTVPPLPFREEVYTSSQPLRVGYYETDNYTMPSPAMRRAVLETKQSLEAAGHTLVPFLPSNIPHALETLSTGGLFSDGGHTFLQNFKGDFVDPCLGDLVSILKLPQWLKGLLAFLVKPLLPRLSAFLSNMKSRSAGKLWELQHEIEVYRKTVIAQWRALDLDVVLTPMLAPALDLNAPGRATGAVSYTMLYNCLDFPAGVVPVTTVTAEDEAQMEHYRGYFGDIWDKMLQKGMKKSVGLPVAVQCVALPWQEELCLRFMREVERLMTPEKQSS

[2] = target: Fatty-acid amide hydrolase 1 (Mus musculus) (UniProt O08914); test: Reversible noncompetitive inhibition of FAAH in mouse brain homogenate using [3Hethanolamine]AEA as substrate incubated for 20 mins prior to dialysis for 18 hrs followed by substrate addition measured after 15 mins; format: tissue-based
[3] = target: T2, Fatty-acid amide hydrolase 1 (Mus musculus, UniProt O08914); test: Inhibition of FAAH in mouse brain homogenate using [3Hethanolamine]AEA as substrate incubated for 20 mins prior to substrate addition measured after 15 mins by beta counting analysis; format: tissue-based
T2 sequence (O08914 whole entry): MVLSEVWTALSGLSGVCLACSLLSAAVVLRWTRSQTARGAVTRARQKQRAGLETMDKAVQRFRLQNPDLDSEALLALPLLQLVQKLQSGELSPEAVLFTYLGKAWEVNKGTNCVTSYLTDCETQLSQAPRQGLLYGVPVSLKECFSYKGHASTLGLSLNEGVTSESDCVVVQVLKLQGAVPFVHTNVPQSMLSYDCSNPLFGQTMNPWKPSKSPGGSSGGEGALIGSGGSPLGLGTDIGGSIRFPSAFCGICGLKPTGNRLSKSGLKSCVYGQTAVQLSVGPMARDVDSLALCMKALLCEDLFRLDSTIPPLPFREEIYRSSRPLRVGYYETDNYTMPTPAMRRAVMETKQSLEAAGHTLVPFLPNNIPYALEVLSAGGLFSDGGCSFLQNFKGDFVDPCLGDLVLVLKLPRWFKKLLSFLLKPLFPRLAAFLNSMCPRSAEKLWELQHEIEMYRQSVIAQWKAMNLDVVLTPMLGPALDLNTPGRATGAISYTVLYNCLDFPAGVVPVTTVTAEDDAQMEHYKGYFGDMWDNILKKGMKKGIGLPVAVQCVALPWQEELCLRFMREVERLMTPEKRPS

| Ki [3] [nM] | SMILES | IC50 [1] [nM] | inhibition [2] | Ki [1] [nM] |
| --- | --- | --- | --- | --- |
| 10 | NC(=O)c1ccn(-c2cccc(N3CCN(CCCCCCc4ccccc4)CC3)c2)c1 | > 1000 | Active |  |
| 270 | N#Cc1ccn(-c2cccc(N3CCN(CCCCCCc4ccccc4)CC3)c2)c1 |  |  |  |
| > 500 | NC(=O)c1ccn(-c2cccc(N3CCN(C(=O)NCCCCCCc4ccccc4)CC3)c2)c1 |  |  |  |
| 263 | O=C(NCCCCCCc1ccccc1)N1CCN(c2cccc(-n3cccc3)c2)CC1 |  |  |  |

| SMILES | Ki [3] [nM] | IC50 [1] [nM] | inhibition [2] | Ki [1] [nM] |
| --- | --- | --- | --- | --- |
| CN1CCN(c2cccc(OC(=O)NCCCCCCc3ccccc3)c2)CC1 | 240 |  |  |  |
| O=C(NCCCCCCc1ccccc1)Oc1cccc(N2CCNCC2)c1 | 13 | 44 | Active | 26 |

Reference: ChEMBL document CHEMBL2321687, “Identification of a novel arylpiperazine scaffold for fatty acid amide hydrolase inhibition with improved drug disposition properties” (Bioorg Med Chem Lett, 2013)
